Values after ≈ are worked out from the molar mass of the structure shown.
System: Mycobacterium tuberculosis H37Ra
Assay: microbe, parasite or virus in culture
Type: cell-based

## CCCCN1CCN(c2nc(=O)c3cc(C(F)(F)F)cc([N+](=O)[O-])c3s2)CC1=O [Compound 1d, 2-(4-Butyl-3-oxopiperazin-1-yl)-8-nitro-6-(trifluoromethyl)-4H-benzo[e][1,3]-thiazin-4-one]
  MIC: 0.034 µM (≈ 0.0146 µg/mL)

From article PMC9078972 (RSC Advances, 2018)
